PubChem BioAssay (NCI)
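Cultured in 96-well plates, cells were exposed to test compound for 48 hours across five concentrations. GI50 is the concentration that inhibits growth by half. TGI is the concentration that stops growth completely.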

Columns and labels:
Test in all cases: NCI tumour cell line growth inhibition, 48 h
[1] = test system: OVCAR-3 ovarian
[2] = test system: HCC-2998 colon
[3] = test system: RXF 393 renal
[4] = test system: HOP-92 NSCLC
[5] = test system: A549 NSCLC
[6] = test system: K-562 leukemia
[7] = test system: SK-MEL-2 melanoma
[8] = test system: SF-539 CNS
[9] = test system: 786-0 renal
[10] = test system: NCI/ADR-RES ovarian

Compound: CN(C)CCCNc1cnc2cc3ccccc3cc2n1
- TGI [1]: > 100 µM
- TGI [2]: 35.1 µM
- TGI [3]: 50.2 µM
- TGI [4]: 95.8 µM
- TGI [5]: > 100 µM
- TGI [6]: 70.2 µM
- TGI [7]: 44.8 µM
- TGI [8]: 68.8 µM
- TGI [9]: > 100 µM

Compound: COc1ccc(/C=N\NC(=O)Nc2cccc3ccccc23)cc1
- TGI [10]: > 100 µM
- TGI [2]: > 100 µM
- TGI [4]: 42.1 µM
- TGI [5]: > 100 µM
- TGI [7]: 43.7 µM
- TGI [8]: 33.3 µM
- TGI [9]: 46.6 µM

Compound: Cc1ccc(S(=O)(=O)C2c3nc4ccccc4cc3-c3nc4ccccc4nc32)cc1 (configuration not stated)
- TGI [1]: > 100 µM
- TGI [2]: > 100 µM
- TGI [4]: > 100 µM
- TGI [5]: > 100 µM
- TGI [6]: > 100 µM
- TGI [7]: > 100 µM
- TGI [8]: > 100 µM
- TGI [9]: > 100 µM

Compound: COc1ccc(-c2nnc(CCCCCCCCc3nnc(-c4ccc(OC)cc4)n3N)n2N)cc1
- TGI [1]: > 100 µM
- TGI [10]: > 31.6 µM
- TGI [2]: > 100 µM
- TGI [4]: > 69.1 µM
- TGI [5]: > 100 µM
- TGI [6]: > 100 µM
- TGI [7]: > 100 µM
- TGI [8]: > 100 µM
- TGI [9]: > 31.6 µM

Compound: COc1ccc(/C(Cl)=C(\C=O)c2ccccc2)cc1OC
- TGI [1]: > 100 µM
- TGI [2]: > 100 µM
- TGI [3]: 69 µM
- TGI [5]: > 100 µM
- TGI [6]: > 100 µM
- TGI [7]: > 100 µM
- TGI [8]: > 100 µM

Compound: CN1CCN(/C(N)=C(\C#N)C(=O)Nc2ccccc2)CC1
- TGI [1]: > 100 µM
- TGI [10]: > 100 µM
- TGI [2]: > 100 µM
- TGI [4]: > 100 µM
- TGI [5]: > 100 µM
- TGI [6]: > 100 µM
- TGI [7]: > 100 µM
- TGI [8]: > 100 µM
- TGI [9]: > 100 µM

Compound: C/C(=N\NC(=O)c1cccnc1)c1cccc(/C(C)=N/NC(=O)c2cccnc2)n1.CC(=O)[O-].CC(=O)[O-].[Zn+2]
- GI50 [1]: 843 nM
- TGI [1]: > 100 µM
- GI50 [2]: 995 nM
- TGI [2]: > 100 µM
- TGI [3]: 36.8 µM
- GI50 [4]: 1550 nM
- TGI [4]: 6.47 µM
- TGI [5]: > 57.4 µM
- TGI [7]: > 54.9 µM
- TGI [8]: 6.55 µM
- TGI [9]: > 100 µM

Compound: COc1ccc(/C=N/n2cnc3c(c2=O)S/C(=C2/SC(=S)N(c4ccc(C)cc4)C2=O)N3c2ccccc2)cc1
- TGI [1]: 74.2 µM
- TGI [2]: > 100 µM
- TGI [3]: 35.8 µM
- TGI [4]: > 100 µM
- TGI [5]: > 100 µM
- TGI [6]: > 10 µM
- TGI [7]: > 100 µM
- TGI [8]: > 100 µM

Compound: CC1(C)OCC(COC(=O)NCn2cc(-c3ccccc3)nn2)O1 (configuration not stated)
- TGI [10]: > 100 µM
- TGI [2]: > 100 µM
- TGI [4]: > 100 µM
- TGI [5]: > 100 µM
- TGI [6]: > 100 µM
- TGI [7]: > 100 µM
- TGI [8]: > 100 µM
- TGI [9]: > 100 µM

Compound: O=S(=O)(O)c1cc(Nc2ccnc3ccccc23)c2c(S(=O)(=O)O)cc(S(=O)(=O)O)cc2c1
- TGI [1]: > 100 µM
- TGI [10]: > 100 µM
- TGI [2]: > 100 µM
- TGI [3]: > 100 µM
- TGI [5]: > 100 µM
- TGI [7]: > 100 µM
- TGI [8]: > 100 µM
- TGI [9]: > 100 µM

Compound: S=c1nc2sc3c(c2c(Nc2ccc(Br)cc2)[nH]1)CCN(N1CCc2c(sc4nc(=S)[nH]c(Nc5ccc(Br)cc5)c24)C1)C3
- TGI [1]: > 50 µM
- TGI [10]: > 50 µM
- TGI [2]: > 50 µM
- TGI [3]: 42.5 µM
- TGI [5]: > 50 µM
- TGI [6]: > 50 µM
- TGI [7]: > 50 µM
- TGI [8]: > 50 µM
- TGI [9]: 15.5 µM

Compound: Clc1cc(OCC23CC4CC(CC(C4)C2)C3)nc(OCC23CC4CC(CC(C4)C2)C3)n1
- TGI [1]: > 100 µM
- TGI [10]: > 100 µM
- TGI [2]: > 100 µM
- TGI [3]: > 100 µM
- TGI [5]: > 100 µM
- TGI [6]: > 100 µM
- TGI [7]: > 100 µM
- TGI [8]: > 100 µM
- TGI [9]: > 100 µM

Compound: COc1ccc2c(c1)CC1(O)COc3cc(OC)ccc3C1O2 (configuration not stated)
- TGI [1]: > 100 µM
- TGI [10]: > 100 µM
- TGI [2]: > 100 µM
- TGI [4]: > 100 µM
- TGI [5]: > 100 µM
- TGI [7]: > 100 µM
- TGI [8]: > 100 µM
- TGI [9]: > 100 µM

Compound: COC(=O)[C@@]12OC[C@]34C([C@@H](O)C1O)[C@@]1(C)CC(=O)C(O)=C(C)C1C[C@H]3OC(=O)[C@H](OC(=O)/C=C(/c1ccccc1)C(F)(F)F)[C@H]42 (some centres not stated)
- TGI [2]: 8.04 µM
- TGI [3]: 17.5 µM
- TGI [4]: 17.1 µM
- TGI [5]: 20.2 µM
- TGI [6]: > 25 µM
- TGI [7]: > 25 µM
- TGI [8]: 3.75 µM
- TGI [9]: > 25 µM

Compound: Cc1nc2c(Cl)cc(Cl)cc2c(Cl)c1CCCl
- TGI [1]: > 100 µM
- TGI [10]: > 100 µM
- TGI [2]: > 100 µM
- TGI [3]: 79.3 µM
- TGI [5]: > 100 µM
- TGI [6]: > 100 µM
- TGI [7]: > 100 µM
- TGI [8]: > 100 µM
- TGI [9]: > 100 µM

Compound: CCOC(=O)C1=NN(c2ccc(Cl)cc2)C2=CC(C)=NN(C)C(=S)N21
- TGI [1]: > 100 µM
- TGI [10]: > 100 µM
- TGI [2]: > 100 µM
- TGI [3]: 47.3 µM
- TGI [4]: > 100 µM
- TGI [5]: > 100 µM
- TGI [6]: > 100 µM
- TGI [8]: 56.5 µM

Compound: N#CCOc1cccc(C2(N3CC=CCC3)CCCCC2)c1
- TGI [1]: > 100 µM
- TGI [10]: > 100 µM
- TGI [5]: > 100 µM
- TGI [6]: > 100 µM
- TGI [7]: > 100 µM
- TGI [8]: > 100 µM
- TGI [9]: > 100 µM
